Test results from paper PMC10350920, “Development of a 2,4-Diaminothiazole Series for the Treatment of Human African Trypanosomiasis Highlights the Importance of Static–Cidal Screening of Analogues” (Journal of Medicinal Chemistry, 2023).
Like-named read-outs stand apart in the source and are kept apart here.

Assays:
T. b. brucei S427 = assay: Stage 1 efficacy study in rats; assay type: in vivo, male SD rats; conditions: infected rats, single dose, 100 mg kg^–1 PO
Experimental: Stage 1 efficacy experiments using T. b. brucei S427 were performed as described,[44] with minor modifications. In brief, male SD rats (38) or female HRN (16) and NMRI (16, 38) mice (3–5 per group) were injected intraperitoneally with 1 × 10^4 BSFs of T. brucei. These BSFs come from a stock of cryopreserved stabilates containing 10% glycerol. The stabilate was suspended in 20 mM Hanks’ balanced salt solution with glucose to obtain a trypanosome concentration of 5 × 10^4 cells mL^–1. Each mouse was injected with 0.2 mL. […] Dose concentrations were 1.25, 2.5, 5, 7.5, 10, 30, and 50 mg kg^–1 free base (16) or 100 mg kg^–1 free base (38). The doses were prepared fresh daily, using 5% DMSO/40% PEG400/55% Milli-Q (16) or 15% solutol/85% Milli-Q (38), and the dose volume was 10 mL kg^–1. One group of three mice was an untreated control group.

[1] = test system: Tb927.8.6290 overexpressing cell lines (WT); assay: Drug sensitivity, line overexpressing Tb927.8.6290 WT; assay type: cell-based, T. b. brucei; conditions: for EC50: Trypanosoma brucei
Experimental: (§1) Drug sensitivity assays were carried out with BSF T. b. brucei “single marker” S427 or BSF T. b. brucei, Lister 427, MiTat 1.2, clone 221a 2T1 cells,[45] cells grown at 37 °C with 5% CO2 in an HMI-9T medium[46] as previously described.[47] 2T1 cells were initially maintained with 1 μg mL^–1 puromycin and 1 μg mL^–1 phleomycin prior to transfection or 2.5 μg mL^–1 hygromycin and 1 μg mL^–1 phleomycin after transfection. Induction of overexpression was achieved by the addition of 1 μg mL^–1 tetracycline to the culture medium.
(§2) The following primers were used to PCR amplify Tb927.8.6290 from genomic DNA isolated from wild-type and 38-resistant trypanosomes 5′-[…]-3′ (PacI site in bold) and 5′-[…]-3′ (BamHI site in bold). The PCR products (1272 bp) were then cloned into the pRPa plasmid.[53] The accuracy of the plasmid constructs was confirmed by in-house Sanger sequencing and then linearized with AscI prior to transfection. The linearized plasmids were introduced into 2T1 T. b. brucei cells following removal of puromycin from the media and selected with 2.5 μg mL^–1 hygromycin and 1 μg mL^–1 phleomycin. Two independent clones were selected for further studies.

[2] = test system: Tb927.8.6290 overexpressing cell lines (V241F/A258V); assay: Drug sensitivity, line overexpressing Tb927.8.6290 V241F/A258V; assay type: cell-based, T. b. brucei; conditions: for EC50: Trypanosoma brucei
Experimental: as §1, §2

[3] = Equilibrium dialysis, free fraction in plasma; assay type: in vitro ADME, mouse; conditions: matrix not given
Experimental: In brief, a 96-well equilibrium dialysis apparatus was used to determine the free fraction in plasma and the brain (HT Dialysis LLC, Gales Ferry, CT). Isotonic buffer was prepared using 8.69 g of Na2HPO4, 1.9 g of KH2PO4, and 4.11 g of NaCl dissolved in 1 L of Milli-Q water, and the pH was adjusted to 7.4. Artificial CSF was prepared using 3.652 g of NaCl, 93.2 mg of KCl, 119.96 mg of MgCl2, 92.61 mg of CaCl2, and 268 mg of Na2HPO4 heptahydrate dissolved in 0.5 L of water, and the pH was adjusted to 7.4. Membranes [12–14 (plasma) or 6–9 (brain) kDA cutoff] were conditioned in deionized water for 60 min, followed by conditioning in 80:20 deionized water/ethanol for 20 min, and then rinsed in isotonic buffer (plasma) or […] (brain) before use. Female CD1 mouse plasma was defrosted and centrifuged for 10 min at 3000 rpm (Allegra X12-R, Beckman Coulter, USA). The control mouse brain was homogenized in two volumes of artificial CSF in a Covaris S2 acoustic homogenizer. Plasma or brain homogenate was spiked with the test compound (10 μg mL^–1), and 150 μL aliquots (n = 3 replicate determinations) were loaded into the 96-well equilibrium dialysis plate. Dialysis versus 150 μL of isotonic buffer (plasma) or artificial CSF (brain) was carried out for 5 h in a temperature-controlled incubator at 37 °C (Barworld Scientific Ltd, UK) using an orbital microplate shaker at 125 rpm (Barworld Scientific Ltd, UK). At the end of the incubation period, aliquots of plasma/homogenized brain or buffer were transferred to a clean 96-well plate, and the composition in each well was balanced with control fluid, such that the volume of buffer to the matrix was the same. Sample extraction was performed by the addition of 400 μL of acetonitrile containing an appropriate internal standard. Samples were allowed to mix for 1 min and then centrifuged at 3000 rpm in 96-well blocks for 10 min (Allegra X12-R, Beckman Coulter, USA). All samples were analyzed by means of UPLC/MS/MS on a Quattro Premier XE or Micro TQs mass spectrometer (Waters Corporation, USA). The unbound fraction was determined as the ratio of the peak area in the buffer to that in the matrix.

[4] = mouse, in vivo, ip
[5] = Pharmacokinetics in HRN mice; conditions: IP, 10 mg kg^–1

In the case of CC(C)(O)CC(=O)c1sc(Nc2ccc(F)c(F)c2)nc1N [Compound 38, 1-(4-Amino-2-((3,4-difluorophenyl)amino)thiazol-5-yl)-3-hydroxy-3-methylbutan-1-one], the “stage 1 efficacy, parasitemia” value (T. b. brucei S427) is reported as “no reduction in parasitemia”, the EC50 ([1]; read-out: EC50, WT +TET) is reported as 10 ± 0.25 µM and the EC50 ([1]; read-out: EC50, WT –TET) is reported as 0.4 ± 0.025 µM. For the same compound, the “fold shift, WT” value ([1]; −TET vs +TET EC50, in brackets) was 26, the EC50 ([2]; read-out: EC50, V241F/A258V +TET) was 12 ± 0.69 µM and the EC50 ([2]; read-out: EC50, V241F/A258V –TET) was 0.27 ± 0.018 µM. The “fold shift, V241F/A258V” value ([2]; −TET vs +TET EC50, in brackets) was 45.

In the case of “(4-Amino-2-(cyclohexylamino)thiazol-5-yl)(2,6-difluorophenyl)methanone [Compound 16]”, the “Fu (free fraction)” value [3] is reported as 0.03, the “exposure in HRN mice relative to NMRI mice” value [4] is reported as 15 fold and the AUC [5] is reported as 1,000,000 ng mL h^–1. It also gave a Tmax [5] of 30 min.
